According to patent US5747536A, “Pharmaceutical composition comprising L-carnitine or derivative thereof and trihydroxy or tetrahydroxystilbene” (Sigma-Tau Industrie Farmaceutiche Riunite S.p.A., priority 1995, dated 1998):

Experiments:
[1] = test system: platelet-rich plasma (PRP); experiment: Platelet aggregation induced by collagen in platelet-rich plasma, photometric (Born); assay type: cell-based, human (volunteers); conditions: collagen 2.5 ng/ml, 10 minutes of incubation
Method: Platelet-rich plasma (PRP) was obtained from the blood of volunteers by centrifuging the plasma at 145 x g for 5 min at 22° C. The number of platelets was determined using a CA 580A (Delcon) Platelet Counter. The number of platelets was brought down to a fixed value of […] by adding platelet-poor plasma (PPP). PPP was obtained by centrifuging blood at 1600 x g for 10 min at 22° C.
Platelet aggregation was determined photometrically (Born G.V.R., Nature 194, 927, 1962) using an Elvi 840 aggregometer in plastic test tubes under continual stirring at 1000 rpm. The maximum light transmission (100%) was measured with PPP readings, whereas 0% transmission was measured with PRP readings.
The degree of aggregation of PRP induced by the aggregating agent (collagen at 2.5 to 5 ng/ml) was calculated as a percentage of maximum transmission of light obtained with PPP using […] PRP samples.
Aggregation was measured in basal conditions and after 10 minutes of incubation with L-carnitine, resveratrol, grape extract, and combinations of these preparations.

[2] = test system: atherosclerotic vascular lesions (aorta); experiment: Experimental atherosclerosis induced by atherogenic diet (Malinow method); assay type: in vivo; conditions: atherogenic diet for 6 consecutive weeks; male Wistar rats
[3] = test system: production of thromboxanes and leukotrienes; synthesis of eicosanoids; conditions: cited from earlier work
[4] = test system: cyclo-oxygeNases; conditions: Kimura et al. 1985; cited from earlier work
[5] = Kimura et al. 1983; cited from earlier work
[6] = test system: formation of nitroxides; conditions: Fitzpatrick et al. 1993; cited from earlier work
[7] = test system: platelet aggregation induced by collagen or ADP; conditions: Fitzpatrick et al. 1993; cited from earlier work
[8] = test system: lipo-oxygenases; conditions: Kimura et al. 1985; cited from earlier work

Row | Compound | effect on platelet aggregation (in words) [1] | atherosclerotic vascular lesions (in words) [2] | production of thromboxanes and leukotrienes (in words) ([3]; Kimura et al. 1985) | synthesis of eicosanoids (in words) ([3]; background statement) | IC50 ([1]; Homo sapiens, Platelet, 10 min, read-out: ED50, inhibition of the platelet aggregation induced by collagen) | inhibition of cyclo-oxygenases (in words) [4] | antihyperoxidative ability (in words) [5] | formation of nitroxides with a vasodilatory action (in words) [6] | inhibition of platelet aggregation induced by collagen or ADP (in words) [7] | inhibition of lipo-oxygenases (in words) [8]
1 | C[N+](C)(C)C[C@H](O)CC(=O)[O-] [carnitine, L-carnitine] | no significant change | reduced |  |  |  |  |  |  |  | 
2 | Oc1ccc(C=Cc2cc(O)cc(O)c2)cc1 [resveratrol, 3,4',5-trihydroxystilbene] |  | reduced | reduction in the production of thromboxanes and leukotrienes | ability to modulate the synthesis of eicosanoids | 3.5 ng/mL | inhibit | antihyperoxidative ability | promoting the formation of nitroxides with a vasodilatory action | inhibiting platelet aggregation induced by collagen or ADP | inhibit
